From patent publication US20240101549A1, “N-(2-(4-CYANOTHIAZOLIDIN-3-YL)-2-OXOETHYL)-QUINOLINE-4-CARBOXAMIDES” (AstraZeneca AB, priority 2020, published 2024)
Read-outs that look alike come from different tables or passages of the source.

Legend:
Caco-2 cell = Caco-2 cell permeability; assay type: in vitro ADME; conditions: bidirectional (ABBA); for Caco2 Bidirectional (ABBA) A to B Papp / Caco2 Bidirectional (ABBA) B to A Papp: n = 1 or average of n = 2-4
Protocol: (§1) Caco-2 cell permeability was measured as described in Mol Pharm 2017, 14, 1601.

Rat Hepatocytes (rHep) = assay: Metabolic stability in rat hepatocytes (rHep); assay type: in vitro ADME; conditions: n = 1 or geometric mean of n = 2-3
Caco-2 cell permeability = assay type: in vitro ADME; conditions: human
Protocol: as §1

FAP = FAP (Macaca fascicularis, UniProt A0A2K5VGH4); assay: FAP plasma inhibition assay, cynomolgus plasma; assay type: biochemical; conditions: cynomolgus plasma diluted 1:40, 75 μM Ala-Pro-AMC; n = 1; read-out: FAP Cyno Plasma IC50
Protocol: D. FAP Plasma Inhibition Assay This assay was adapted from the method described in Example 237 for detection of FAP target engagement enzyme activity in plasma. […] Compounds were tested using 10 CR, 3 fold dilution series from 500 nM FAC. Two replicates for each assay point were run on the same plate. A fluorescence blank read was taken before substrate addition. […] Plates were incubated for 40 min at rt in the dark. […] IC50 values were determined by plotting % inhibition versus log compound concentration.

[1] = Caco-2, AB intrinsic, n = 1 or average of n = 2-4, read-out: Caco2 AB Intrinsic Papp

FAP, sequence (A0A2K5VGH4 entry or part of it): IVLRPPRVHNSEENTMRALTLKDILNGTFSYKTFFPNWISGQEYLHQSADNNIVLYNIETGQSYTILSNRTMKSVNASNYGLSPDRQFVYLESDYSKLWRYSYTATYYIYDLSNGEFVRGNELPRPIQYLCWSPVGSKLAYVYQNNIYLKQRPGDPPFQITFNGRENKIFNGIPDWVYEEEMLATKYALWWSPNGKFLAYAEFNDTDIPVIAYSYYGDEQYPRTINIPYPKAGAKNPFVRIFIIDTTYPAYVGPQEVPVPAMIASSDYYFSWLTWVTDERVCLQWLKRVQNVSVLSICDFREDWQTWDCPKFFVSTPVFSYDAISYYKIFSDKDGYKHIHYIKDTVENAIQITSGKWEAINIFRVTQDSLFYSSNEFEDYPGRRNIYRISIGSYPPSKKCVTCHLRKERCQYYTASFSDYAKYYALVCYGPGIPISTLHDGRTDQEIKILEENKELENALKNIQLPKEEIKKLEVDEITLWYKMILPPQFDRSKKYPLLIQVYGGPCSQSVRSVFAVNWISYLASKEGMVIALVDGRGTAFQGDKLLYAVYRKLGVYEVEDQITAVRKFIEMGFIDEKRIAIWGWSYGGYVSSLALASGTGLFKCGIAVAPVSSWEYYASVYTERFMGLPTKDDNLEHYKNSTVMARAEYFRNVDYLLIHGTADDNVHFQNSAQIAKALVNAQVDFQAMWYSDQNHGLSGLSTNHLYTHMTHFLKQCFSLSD

Row | SMILES | Caco2 Bidirectional (ABBA) Efflux Ratio (Caco-2 cell) | Caco2 Bidirectional (ABBA) A to B Papp (Caco-2 cell) | Caco2 Bidirectional (ABBA) B to A Papp (Caco-2 cell) | rHep CLint (Rat Hepatocytes (rHep)) [μL/min/1E6] | Papp A→B (Caco-2 cell permeability; [1]) [×10⁻⁶ cm/s] | also measured
1 | N#C[C@@H]1CSCN1C(=O)CNC(=O)c1ccnc2ccc(N3CC4(CC(F)C4)C3)cc12 [Example 155, (R)—N-(2-(4-Cyanothiazolidin-3-yl)-2-oxoethyl)-6-(6-fluoro-2-azaspiro[3.3]heptan-2-yl)quinoline-4-carboxamide] | 6.5 | 4.2 1E−6 · cm/s | 27 1E−6 · cm/s | – | – | –
2 | CC1CCN(c2ccc3nccc(C(=O)NCC(=O)N4CSC[C@H]4C#N)c3c2)C1=O (single isomer, unassigned) [Example 202, N-(2-((R)-4-Cyanothiazolidin-3-yl)-2-oxoethyl)-6-((R*)-3-methyl-2-oxopyrrolidin-1-yl)quinoline-4-carboxamide] | – | – | – | <1 | – | –
3 | CC1N(c2ccc3nccc(C(=O)NCC(=O)N4CSC[C@H]4C#N)c3c2)CC1(F)F (mixture of isomers) [Example 159, N-(2-((R)-4-Cyanothiazolidin-3-yl)-2-oxoethyl)-6-((RS)-3,3-difluoro-2-methylazetidin-1-yl)quinoline-4-carboxamide] | – | – | – | 47 | – | –
4 | CC1CC(F)(F)CCN1c1ccc2nccc(C(=O)NCC(=O)N3CSC[C@H]3C#N)c2c1 (mixture of isomers) [Example 44, N-(2-((R)-4-Cyanothiazolidin-3-yl)-2-oxoethyl)-6-((RS)-4,4-difluoro-2-methylpiperidin-1-yl)quinoline-4-carboxamide] | – | – | – | 160 | – | –
5 | CC1CCCN(c2ccc3nccc(C(=O)NCC(=O)N4CSC[C@H]4C#N)c3c2)C1=O (single isomer, unassigned) [Example 203, N-(2-((R)-4-Cyanothiazolidin-3-yl)-2-oxoethyl)-6-((R*)-3-methyl-2-oxopiperidin-1-yl)quinoline-4-carboxamide] | – | – | – | 2.9 | – | Papp A→B (Caco-2 cell permeability; Caco-2, bidirectional (ABBA), A to B, n = 1 or average of n = 2-4, read-out: Caco2 Bidirectional (ABBA) A to B Papp): 0.4 ×10⁻⁶ cm/s; Papp B→A (Caco-2 cell permeability; Caco-2, bidirectional (ABBA), B to A, n = 1 or average of n = 2-4, read-out: Caco2 Bidirectional (ABBA) B to A Papp): 8 ×10⁻⁶ cm/s; efflux ratio (Caco-2 cell permeability; Caco-2, bidirectional (ABBA), read-out: Caco2 Bidirectional (ABBA) Efflux Ratio): 20
6 | N#C[C@@H]1CSCN1C(=O)CNC(=O)c1ccnc2ccc(N3CCOC4(CCOCC4)C3)cc12 [Example 99, (R)—N-(2-(4-cyanothiazolidin-3-yl)-2-oxoethyl)-6-(1,9-dioxa-4-azaspiro[5.5]undecan-4-yl)quinoline-4-carboxamide] | 46 | 0.46 1E−6 · cm/s | 21 1E−6 · cm/s | – | – | –
7 | CC1(C)COC12CN(c1ccc3nccc(C(=O)NCC(=O)N4CSC[C@H]4C#N)c3c1)C2 [Example 18, (R)—N-(2-(4-Cyanothiazolidin-3-yl)-2-oxoethyl)-6-(3,3-dimethyl-1-oxa-6-azaspiro[3.3]heptan-6-yl)quinoline-4-carboxamide] | 34 | 0.90 1E−6 · cm/s | 31 1E−6 · cm/s | – | 13 | –
8 | N#C[C@@H]1CSCN1C(=O)CNC(=O)c1c(F)cnc2ccc(N3CCOCC3)cc12 [Example 2, (R)—N-(2-(4-Cyanothiazolidin-3-yl)-2-oxoethyl)-3-fluoro-6-morpholino-quinoline-4-carboxamide] | – | – | – | – | 23 | IC50 (FAP): 9.2 nM
9 | N#C[C@@H]1CSCN1C(=O)CNC(=O)c1ccnc2ccc(N3CCOCC3C(F)(F)F)cc12 (single isomer, unassigned) [Example 84, N-(2-((R)-4-Cyanothiazolidin-3-yl)-2-oxoethyl)-6-((R*)-3-(trifluoromethyl)-morpholino)quinoline-4-carboxamide] | – | – | – | 26 | – | –
10 | N#C[C@@H]1CSCN1C(=O)CNC(=O)c1ccnc2ccc(N3CC(CF)C3)cc12 [Example 113, (R)—N-(2-(4-Cyanothiazolidin-3-yl)-2-oxoethyl)-6-(3-(fluoromethyl)azetidin-1-yl)quinoline-4-carboxamide] | – | – | – | – | 20 | IC50 (FAP): 0.4 nM
